Legend:
Assay in all cases: relative viability (nuclei count vs DMSO), 5 days (fraction); higher = more cells survive
NVP-TAE684 + Luminespib = compound: COc1cc(N2CCC(N3CCN(C)CC3)CC2)ccc1Nc1ncc(Cl)c(Nc2ccccc2S(=O)(=O)C(C)C)n1 [NVP-TAE684] + CCNC(=O)c1noc(-c2cc(C(C)C)c(O)cc2O)c1-c1ccc(CN2CCOCC2)cc1 [Luminespib] (partner 0.01 µM)
Procedure, shortened: (§1)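 Each reported value is a median over duplicate plates. It expresses relative viability: treated-well nuclei count divided by vehicle-well nuclei count. Lung cancer cell lines in 1536-well plates were dosed by pin tool a day after seeding, alone with one drug or with a fixed anchor-drug dose plus five library-drug doses (not always all listed) in √10 steps, and nuclei were counted after 5 days.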

Vandetanib + Tozasertib = compound: COc1cc2/c(=N/c3ccc(Br)cc3F)nc[nH]c2cc1OCC1CCN(C)CC1 [Vandetanib] + Cc1cc(Nc2cc(N3CCN(C)CC3)nc(Sc3ccc(NC(=O)C4CC4)cc3)n2)n[nH]1 [Tozasertib] (partner 0.1 µM)
Procedure, shortened: as §1

Vandetanib + Pemetrexed = compound: COc1cc2/c(=N/c3ccc(Br)cc3F)nc[nH]c2cc1OCC1CCN(C)CC1 [Vandetanib] + Nc1nc2[nH]cc(CCc3ccc(C(=O)N[C@@H](CCC(=O)O)C(=O)O)cc3)c2c(=O)[nH]1 [Pemetrexed] (partner 0.2 µM)
Procedure, shortened: as §1

Vandetanib + Olaparib = compound: COc1cc2/c(=N/c3ccc(Br)cc3F)nc[nH]c2cc1OCC1CCN(C)CC1 [Vandetanib] + O=C(c1cc(Cc2n[nH]c(=O)c3ccccc23)ccc1F)N1CCN(C(=O)C2CC2)CC1 [Olaparib] (partner 8 µM)
Procedure, shortened: as §1

UMC-11
relative viability (NVP-TAE684 + Luminespib; first compound 0.2 µM): 0.879 | relative viability (NVP-TAE684 + Luminespib; first compound 0.6325 µM): 0.946 | relative viability (NVP-TAE684 + Luminespib; first compound 2 µM): 0.297 | relative viability (Vandetanib + Tozasertib; first compound 0.02 µM): 0.204 | relative viability (Vandetanib + Tozasertib; first compound 0.06325 µM): 0.187 | relative viability (Vandetanib + Tozasertib; first compound 0.2 µM): 0.175 | relative viability (Vandetanib + Tozasertib; first compound 0.6325 µM): 0.189 | relative viability (Vandetanib + Tozasertib; first compound 2 µM): 0.205 | relative viability (Vandetanib + Pemetrexed; first compound 0.02 µM): 0.764 | relative viability (Vandetanib + Pemetrexed; first compound 0.06325 µM): 0.799 | relative viability (Vandetanib + Pemetrexed; first compound 0.2 µM): 0.801 | relative viability (Vandetanib + Pemetrexed; first compound 0.6325 µM): 0.721 | relative viability (Vandetanib + Pemetrexed; first compound 2 µM): 0.667 | relative viability (Vandetanib + Olaparib; first compound 0.02 µM): 0.707 | relative viability (Vandetanib + Olaparib; first compound 0.06325 µM): 0.35 | relative viability (Vandetanib + Olaparib; first compound 0.2 µM): 0.473 | relative viability (Vandetanib + Olaparib; first compound 0.6325 µM): 0.315 | relative viability (Vandetanib + Olaparib; first compound 2 µM): 0.475

From the supplement of paper PMC10307832
